Experimental data from US7989466B2, “Methods to inhibit or augment an inflammatory response” (Cambridge Enterprise Limited, priority 1999, dated 2011).
Where two headings read alike, the source gives them in different places.

Columns and labels:
[1] = tested on: MCP-1 induced THP-1 migration; experiment: THP-1 trans-well migration assay, MCP-1 as chemoattractant; format: cell-based, human; conditions: agent with the cells in the upper compartment, n.s. = no statistically significant inhibition (p > 0.05); for EC50: read-out: ED50 versus MCP-1, inhibition of THP-1 migration
Method: (§1) To determine whether an agent inhibits a chemokine-induced activity, such as macrophage recruitment, varying amounts of the agent are mixed with cells in the presence of a known chemoattractant. For example, a range of known concentrations of an agent, e.g., a chemokine peptide, is incubated with a defined number (e.g., 10^4-10^6) of human THP-1 monocyte cells in individual wells of the top compartment of a trans-well plate. Chemokine (such as MCP-1, MIP1α, IL8 or SDF-1α), at a concentration known to cause significant migration of THP-1 cells in the trans-well migration assay, is placed in the lower compartment (FIG. 1). Cells are then incubated at 37° C. for a period sufficient to allow migration, e.g., 4 hours. After incubation, the cells are gently removed from the top of the filter with a pipette, 20 μl of 20 mM EDTA in simple PBS is added into each top well, and incubated for 20 minutes at 4° C. The filter is carefully flushed with media using a gentle flow, and removed. A standard curve consisting of a two-fold dilution series of THP-1 cells (in 29 μl) is prepared to accurately quantify the number of cells that have migrated. Migrated cells are stained with 3 μl of MTT stock dye solution which is added directly into each well (5 mg/ml in RPMI-1640 without phenol red, Sigma Chemical Co.) and incubated at 37° C. for 4 hours. The media is carefully aspirated from each well, and the converted dye is solubilized by 20 μl of DMSO. Absorbance of converted dye is measured at a wavelength of 595 nm using an ELISA plate reader. The number of migrated cells in each well is then determined by interpolation of the standard curve (see also Imai et al., J. Biol. Chem., 272, 15036 (1997)).
(§2) For this assay, THP-1 cells were maintained at a density of 4×10^5 cells per ml in RPMI-1640 supplemented with 10% fetal calf serum+20 μM 2-mercaptoethanol. Chemotaxis was induced in a 96-well disposable chemotaxis chamber fitted with a […] polycarbonate filter (PVP free, ChemoTX, Neuroprobe Inc., Cabin John). Twenty-nine μl of chemoattractant (recombinant human chemokine; 50 ng/ml, i.e., 5.9 nM) or control (100 ng/ml TGFβ) was added to the lower compartment of each well. The framed filter was aligned with the holes in the corner of the filter frame and placed over the wells. Five×10^4 THP-1 cells in 25 μl of RPMI-1640 were added to the upper compartment. Peptides were dissolved in Milli Q water and then serially diluted in culture medium. In most cases, the serially diluted peptides were added to the upper compartment of the chemotaxis chamber. The chamber was incubated at 37° C. in a humidified atmosphere of 5% CO2 for 4 hours.
(§3) After incubation, the cells were gently removed from the top of the filter with a pipette, 20 μl of 20 mM EDTA in PBS was added into each top well, and the mixture was incubated for 20 minutes at 4° C. The filter was then carefully flushed with media using a gentle flow, and removed. A standard curve was prepared to accurately quantify the number of THP-1 cells that had migrated. The curve was based on a two-fold dilution series of THP-1 cells (top standard 100,000 cells in 29 μl). Cells which had migrated, and in separate wells, the cells in the standards, were stained with 3 μl of MTT stock solution which was added directly into each well (5 mg/ml in RPMI 1640 without phenol red, Sigma Chemical Co.) and incubated at 37° C. for 4 hours. The media was carefully aspirated from each well, and the converted dye was solubilized by 20 μl of DMSO. Absorbance of converted dye was measured at a wavelength of 595 nm using an ELISA plate reader. The number of cells that had migrated in each well was determined by interpolation of the standard curve.

[2] = tested on: TGFβ1 induced THP-1 migration; experiment: THP-1 trans-well migration assay, TGFβ1 as non-chemokine control; format: cell-based, human; conditions: n.s. = no statistically significant inhibition (p > 0.05)
Method: Any method suitable for counting cells can be used, for example, counting with a hemocytometer, incubation of the cells with MTT (see above), or FACS analysis. A negative control assay is also performed, using TGF-β or another non-chemokine chemoattractant (e.g., IL1β or TNFα). To assess whether the agent is cytotoxic, the same concentrations of agent are incubated with THP-1 cells. Agents which 1) are not cytotoxic at levels which inhibit migration, 2) are ineffective at inhibiting the negative control-induced migration, and 3) reduce or inhibit chemokine-induced THP-1 migration, are agents which fall within the scope of the invention.
Chemotaxis was induced in a 96-well disposable chemotaxis chamber fitted with a […] polycarbonate filter (PVP free, ChemoTX, Neuroprobe Inc., Cabin John). […] The framed filter was aligned with the holes in the corner of the filter frame and placed over the wells. […] Peptides were dissolved in Milli Q water and then serially diluted in culture medium. In most cases, the serially diluted peptides were added to the upper compartment of the chemotaxis chamber. The chamber was incubated at 37° C. in a humidified atmosphere of 5% CO2 for 4 hours.
After incubation, the cells were gently removed from the top of the filter with a pipette, 20 μl of 20 mM EDTA in PBS was added into each top well, and the mixture was incubated for 20 minutes at 4° C. The filter was then carefully flushed with media using a gentle flow, and removed. […] The curve was based on a two-fold dilution series of THP-1 cells (top standard 100,000 cells in 29 μl). […] The media was carefully aspirated from each well, and the converted dye was solubilized by 20 μl of DMSO.

[3] = tested on: IL8 induced THP-1 migration; experiment: THP-1 trans-well migration assay, IL-8 as chemoattractant; format: cell-based, human; conditions: n.s. = no statistically significant inhibition (p > 0.05); for EC50: read-out: ED50 versus IL8, inhibition of THP-1 migration
Method: as §1, §2, §3

[4] = tested on: chemokine-induced THP-1 migration; experiment: THP-1 trans-well migration assay, panel of chemokines (MCP-1, MIP1α, IL-8, SDF1α); format: cell-based, human; conditions: for CC SPECIFICITY: average inhibitory ED50 versus SDF1 and IL8 divided by average inhibitory ED50 versus MCP-1 and MIP1α; for Chemokine antagonist: active against at least one of IL-8, SDF-1α, MCP-1, MIP1α
[5] = tested on: MIP1α induced THP-1 migration; experiment: THP-1 trans-well migration assay, MIP1α as chemoattractant; format: cell-based, human; conditions: for EC50: n.s. = no statistically significant inhibition (p > 0.05), read-out: ED50 versus MIP1α, inhibition of THP-1 migration
Method: as §1, §2, §3

[6] = tested on: SDF-1α induced THP-1 migration; experiment: THP-1 trans-well migration assay, SDF-1α as chemoattractant; format: cell-based, human; conditions: for EC50: read-out: ED50 versus SDF-1α, inhibition of THP-1 migration
Method: as §1, §2, §3

[7] = target: T1, Duffy Antigen Receptor for Chemokines (DARC) (Homo sapiens, UniProt Q16570); experiment: DARC binding: competition with 125I-MCP-1 on red blood cells
T1 sequence (Q16570 1-336): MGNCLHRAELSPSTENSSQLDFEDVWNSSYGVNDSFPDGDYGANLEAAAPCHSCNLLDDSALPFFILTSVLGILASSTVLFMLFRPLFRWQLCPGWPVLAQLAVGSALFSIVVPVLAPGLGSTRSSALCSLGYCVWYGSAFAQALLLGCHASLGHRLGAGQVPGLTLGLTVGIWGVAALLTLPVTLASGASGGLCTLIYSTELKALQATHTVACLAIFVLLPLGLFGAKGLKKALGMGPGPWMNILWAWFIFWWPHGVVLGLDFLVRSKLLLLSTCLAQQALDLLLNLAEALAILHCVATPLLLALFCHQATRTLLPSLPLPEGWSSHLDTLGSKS

[8] = target: T2, Recombinant human latent TGF-β1 (Homo sapiens, UniProt P01137); experiment: Latent TGF-β1 activation ELISA (R2X capture); format: biochemical; design: key: −: A minus indicates no detectable activity in the assay; +: The number of pluses is a qualitative indicating of the activity of each peptide in each assay; ++: The number of pluses is a qualitative indicating of the activity of each peptide in each assay; +++: The number of pluses is a qualitative indicating of the activity of each peptide in each assay; ++++: The number of pluses is a qualitative indicating of the activity of each peptide in each assay; +++++: The number of pluses is a qualitative indicating of the activity of each peptide in each assay; conditions: test peptide at 100 nM, 37° C., 90 minutes
T2 construct: purchased R&D Systems; host or cells: CHO cells
T2 sequence (P01137 30-278 limits assumed): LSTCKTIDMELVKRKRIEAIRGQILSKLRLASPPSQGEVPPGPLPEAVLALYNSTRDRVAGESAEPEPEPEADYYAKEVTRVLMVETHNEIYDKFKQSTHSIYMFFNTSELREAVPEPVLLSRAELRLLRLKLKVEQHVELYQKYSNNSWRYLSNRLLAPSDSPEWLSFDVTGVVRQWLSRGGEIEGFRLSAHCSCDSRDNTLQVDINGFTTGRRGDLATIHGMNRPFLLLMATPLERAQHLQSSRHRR
Method: To test whether a KXK tripeptide activates TGF-beta, a direct ELISA-type assay can be used. Recombinant human latent TGF-β1 produced in CHO cells (R&D Systems) was incubated with the test activator. For example, 200 ng of latent TGF-β1 (at 20 μg/ml) was incubated with test peptide at 100 nM final concentration at 37° C. for 90 minutes. Following incubation, the TGF-β is incubated with the recombinant extracellular domain of the Type II TGF-β receptor (R2X) which binds only the active and not the latent forms of TGF-β1 (Clin. Chim. Acta, 235, 11 (1995)). For example, 1 μg of purified R2X is coated onto a Maxisorp ELISA plate well in 50 μl of 100 mM sodium carbonate for 2 hours at 4° C., and non-specific protein binding then blocked incubation with 5% sucrose 5% Tween-20 in Tris-buffered saline for 1 hour at room temperature.
The TGF-β sample is then incubated with the coated and blocked wells for 2 hours at room temperature with shaking. Wells are washed 3 times quickly with Tris-buffered saline containing 0.05% Tween-20 between each incubation. If any of the latent TGF-β1 has been activated by the incubation with test peptide, it is captured by the R2X, while remaining latent TGF-β1 is washed away. Captured active TGF-β1 is then detected by incubation with a suitable detection agent, such as a peroxidase conjugated polyclonal anti-TGF-beta antibody. For example, the wells are incubated with 200 μl of BDA19 chicken anti-TGF-β1 antibody coupled to horseradish peroxidase for 90 minutes at room temperature with shaking. Any bound peroxidase is then detected using a suitable chromogenic substrate (e.g., K-BLUE TMB substrate solution). The amount of active TGF-β generated is estimated by interpolation of a standard curve constructed using known amounts of active TGF-β1 (R&D Systems).

[9] = average inhibitory ED50 for inhibition of THP-1 migration induced by each of the chemokines, read-out: AVERAGE ED50
[10] = n.s. = no statistically significant inhibition (p > 0.05)
[11] = footnote f, KQK MCP-1, SEE MIP1α, KLK SDF1, KEN IL8, read-out: ED50 of a tripeptide against the one chemokine it is highly specific for
[12] = tripeptide at 100 μM, mean ± range, dash = no statistically significant reduction in migration

Substance	ED50 versus TGFβ1, inhibition of THP-1 migration [2]	EC50 [5]	TGF-beta Activator [8]	Chemokine antagonist [4]	other results
EICADPSQKWVQ [Ser7peptide 3]	n.s.	6 µM			EC50 [1]: 7 µM; EC50 [3]: 3 µM; EC50 [4, 9]: 5 µM; CC SPECIFICITY [4]: 0.5; EC50 [6, 10]: 4 µM
EICLDPKQKWIQ [Leu4Ile11peptide 3]	n.s.	1 µM			EC50 ([1]; listed as Leu4Ile11peptide 3(1-12)[MCP-1]): ~1 µM; EC50 [1]: 2 µM; selectivity for receptors on THP-1 cells over DARC [7]: at least 20 fold; EC50 [3]: 3 µM; more potent as an inhibitor of CC chemokines than peptide 3(1-12)[MCP-1] [4]: approximately 5 fold; EC50 ([4]; average inhibitory ED50 for inhibition of THP-1 migration induced by each of the chemokines, listed as Leu4Ile11peptide 3(1-12)[MCP-1], read-out: AVERAGE ED50): 2.3 µM; CC SPECIFICITY [4]: 2.0; EC50 [6, 10]: 3 µM
EICLDPKQKWVQ [Leu4peptide 3]	n.s.	7 µM			EC50 [1]: 8 µM; EC50 [3]: 3 µM; increase in potency as an inhibitor of CXC chemokines compared with peptide 3(1-12)[MCP-1] [4]: approximately 4 fold; EC50 [4, 9]: 5 µM; EC50 [6, 10]: 3 µM
KDK			−	+	
KEK			−	+	
KFK			++++	−	
KGK			−	−	
KIK			++	++	
KKK			−	++++	
KLK			+++	++++	CC SPECIFICITY [4]: <0.1; EC50 [4, 11]: 0.1 to 10 µM; percentage inhibition of migration induced by SDF1α [6, 12]: 87 ± 6%
KQKWVQ [Peptide 3[7-12]]	n.s.	5 µM			EC50 [1]: 7 µM; EC50 [3]: 6 µM; EC50 ([4]; THP-1 migration, read-out: ED50 range, migration by all chemokines tested): 7 to 9 µM; EC50 [6, 10]: 6 µM
KSK			−	−	
KTK			−	−	
KWK			−	−	
KYK			+++++	−	
SEE	n.s.	6 µM			ED50 versus MCP-1, inhibition of THP-1 migration [1]: n.s.; ED50 versus IL8, inhibition of THP-1 migration [3]: n.s.; specificity for the cognate chemokine over all the other chemokines tested ([4]; KQK MCP-1, SEE MIP1-α): > 100 fold; CC SPECIFICITY [4]: >100; EC50 [4, 11]: 0.8 µM; percentage inhibition of migration induced by MIP1α [5, 12]: 65 ± 3%; ED50 versus SDF-1α, inhibition of THP-1 migration [6, 10]: n.s.
